Measured values from paper PMC3951351 (Biochemistry, 2009).

Biological target: T1, MreB (MreB1) (Thermotoga maritima, UniProt Q9WZ57)
T1 sequence (Q9WZ57 1-336): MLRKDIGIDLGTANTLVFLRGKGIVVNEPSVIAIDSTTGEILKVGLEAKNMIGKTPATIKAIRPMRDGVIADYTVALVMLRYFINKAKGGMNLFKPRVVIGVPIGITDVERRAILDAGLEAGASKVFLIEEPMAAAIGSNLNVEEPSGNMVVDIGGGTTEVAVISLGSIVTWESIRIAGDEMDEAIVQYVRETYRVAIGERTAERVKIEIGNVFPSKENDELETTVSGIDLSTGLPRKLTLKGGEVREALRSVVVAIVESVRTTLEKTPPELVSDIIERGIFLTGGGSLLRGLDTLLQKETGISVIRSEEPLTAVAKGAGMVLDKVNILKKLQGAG
Assay: STD NMR titration
Format: binding

Kd: 1.32 ± 0.14 µM
Compound: N=C(N)SCc1ccc(Cl)c(Cl)c1 [A22, S-(3,4-dichlorobenzyl)isothiourea]
